According to patent US20070071773A1, “Compositions and methods for the treatment and prophylaxis of infections caused by gram positive bacteria” (priority 2002, published 2007):
Entries after “also recorded” stand apart in the source; their conditions may differ.

Experiments:
[1] = test system: GAS strain JS95; test: Murine model of invasive soft-tissue infection: survival and skin lesions after subcutaneous challenge with JS95; assay type: in vivo, Group A Streptococcus (GAS)
Experimental: (§1) The ability of GAS to cause lethal infection in ten-gram BALB/c female mice (Harlan Laboratories, Jerusalem, Israel) was assessed as described before [Ravins, M. et al. J. Infect. Dis. 182:1702-11 (2000)]. Briefly, 10^8 CFU of log-phase bacteria were washed twice in PBS, resuspended in 0.1 ml PBS and injected subcutaneously into the back of a mouse. The number of CFU injected was verified for each experiment by plating bacteria on THY-blood agar plates and counting. Each group contained 8 to 10 mice that were observed daily for death and changes in the lesions' properties such as size and depth, or were sacrificed at different times after inoculation for histopathological assessment. To determine the presence of bacteria in skin and spleen, mice were sacrificed; a wide area surrounding the skin lesions was excised, spleens were removed, and organs were homogenized in 10 or 1 ml of sterile PBS, respectively. Aliquots were plated and streptococcal colonies were counted. The Institutional Ethics Committee for animal care approved all animal procedures (approval number MD 79.17-4).
Therefore, the inventors next tested the peptide effect on virulence of the highly invasive strain of the invention. A 17 amino acid peptide, corresponding to the amino acid sequence encoded by the SilCR ORF, was synthesized and purified. Mice were challenged with the highly virulent strain (JS95) in the presence and absence of the 17 amino acid synthetic peptide DIFKLVIDHISMKARKK (also denoted by SEQ ID NO: 32), of a 70% purity.
The ability of the peptide to protect mice inoculated with increasing doses of the bacteria ranging from 10^7 to 10^10 CFU was next examined. […] Mice challenged with a low dose of 10^7 CFU, in the absence of the peptide, died within 4 days after challenge. […] Results were consistent even after 21 days of follow up (data not shown).
Mice were injected under the surface of the skin with 2×10^8 of M14 GAS strain, JS95, without (FIG. 8A) or with 25 μg of the highly purified (90% purity) 17 amino acid peptide (SEQ ID NO: 32) (FIG. 8B).
In order to examine the ability of the 17 amino acid peptide (SEQ ID NO: 32) to protect against bacterial challenge, mice were injected with 200 μg of this peptide 24 hours prior to bacterial challenge. As shown by FIG. 9, the 17 amino acid peptide protects 50% of the mice when injected 24 hours before bacterial challenge of 4×10^8 CFU of JS95 strain.

[2] = test system: GAS strain JS95; test: Histopathology of soft-tissue lesions: neutrophil (PMN) recruitment in mice challenged with JS95; assay type: in vivo, Group A Streptococcus (GAS); conditions: 10^8 CFU JS95 with 100 μg of 70% pure peptide, 24 h after inoculation, FIG. 11C, 11D
Experimental: Haematoxylin and eosin stain of the soft-tissue lesions from a mouse challenged with 10^8 CFU of JS95 24 h after inoculation (11A-11B) in the presence of 100 μg of 70% pure peptide (11C, 11D). After 24 hours, skin samples were stained with hematoxiline and eosine and examined by microscopy at 50 (11A, 11C) and 400 (11B, 11D) fold magnification. There is extensive necrosis of fascia, massive presence of bacteria but no infiltration of neutrophils. There were no differences in the histopathology findings as determined in two mice in 4 different experiments.
as §1, with “To determine the presence of bacteria in skin and spleen, mice were sacrificed; a wide area surrounding the skin lesions was excised, spleens were removed, and organs were homogenized in 10 or 1 ml of sterile PBS, respectively.” left out, “The Institutional Ethics Committee for animal care approved all animal procedures (approval number MD 79.17-4).” left out

[3] = Neutrophil influx in mice after injection of the peptide alone; assay type: in vivo; conditions: without bacteria
From the text: This is in a sharp contrast to the paucity of neutrophil influx in mice challenged with JS95 alone (FIG. 11B). Thus, a rapid recruitment of neutrophils appears necessary to confine GAS infection, subsequently preventing a systemic GAS dissemination.

[4] = test system: serotype M14, M1 and M3 strains; test: Neutrophil recruitment in mice challenged with different GAS serotypes; assay type: in vivo, Group A Streptococcus (GAS)
From the text: The absence (M1 and M3) or mutation (M14) of the gene encoding the SilCR pheromone in those GAS strains may eliminate a counter-regulatory mean to a GAS chemokine proteolysis, resulting in an increased virulence potential for invasive soft tissue infections.

[5] = test system: GAS M1 strain 340; test: Murine NF model: lesions after challenge with M1 strain 340; assay type: in vivo, Group A Streptococcus (GAS); conditions: co-injection of SilCR (50 μg, 90% purified) with 10^8 CFU M1 strain 340; FIG. 16C
Experimental: 16C. mice infected with 10^8 CFU of M1 strain 340+SilCR (50 μg 90% purified) 48 h after inoculation.
as §1
GAS of M1 and M3 serotypes are commonly associated with invasive disease and NF, and each lack the SilCR gene in their locus. […]

[6] = test system: M3 strain; test: Murine NF model: lesions after challenge with an M3 strain; assay type: in vivo, Group A Streptococcus (GAS); conditions: SilCR injected together with an M3 strain (data not shown)
[7] = test system: GAS strain JS95; test: Bacterial growth inhibition (disks on blood-agar plate; THY medium); assay type: cell-based, Group A Streptococcus (GAS)
Experimental: One thousands to 1500 CFU of GAS strain JS95 were spread on the surface of a blood-agar plate, incubated at room temperature and disks with different concentrations of antibiotic (control) or peptide (25, 50 and 200 μg) were placed on the surface. The plates were incubated at 37° C. for 16 hours. Areas with no hemolysis (N. hemo.) indicate inhibition of GAS growth by antibiotics. Area with hemolysis (hemo.) indicates GAS growth in the presence of 200 μg of the peptide.
The inventors next examined whether the 17 amino acid peptide of the invention protects mice challenged with highly virulent strains by inhibition of bacterial growth. Different concentrations (1000-1500 CFU) of GAS strain JS95 were spread on the surface of a blood-agar plate and incubated at room temperature. Disks loaded with different concentrations of antibiotics (control) or peptide (25, 50 and 200 μg) were placed on the surface. […] 178:6087-6090 (1996); Havarstein, et al. J. Bacteriol. 179:6586-6584 (1997)] it is plausible that the peptide acts on a TCS. This in turn activates a signal transduction process in the bacteria leading to attenuation of virulence.

[8] = peptide of 90% purity mixed with 10^8 CFU JS95, subcutaneous, FIG. 6

DIFKLVIDHISMKARKK (SilCR peptide) [17 amino acid synthetic peptide, predicted mature form of the pheromone peptide encoded by the SilCR ORF; used at 70% or 90% purity]
protection of mice (survival) ([1]; 3 μg of the 90% purified peptide, JS95 challenge as high as 10^10 CFU, FIG. 16A): protected mice | survival of mice ([1]; 25 μg peptide (90% purity) with 2×10^8 JS95 under the surface of the skin, FIG. 8): all mice of this group survived | skin lesion ([1]; 25 μg peptide (90% purity) with 2×10^8 JS95 under the surface of the skin, FIG. 8B, 8D): small abscess surrounded by a normal skin | protection of mice (survival) ([1]; 100 μg peptide (70% purity) injected together with 10^7 CFU JS95, FIG. 5): partial protection | mice protected ([1]; 200 μg peptide (70% pure) injected 24 hours before challenge with 4×10^8 CFU JS95, FIG. 9): 50% | protection of mice (survival) ([1]; 200 μg peptide (70% pure), challenge with 10^7 and up to 10^9 CFU JS95, FIG. 7): completely protected | deaths of mice ([1]; 200 μg peptide (70% pure), challenge with 10^10 CFU JS95, FIG. 7): only one mouse died | protection of mice (survival) ([1]; 200 μg peptide (70% purity) injected together with 10^7 CFU JS95, FIG. 5): complete protection | lesions of mice ([1]; challenged with JS95 and SilCR, compared with JS95 alone, FIG. 8B vs 8A): significantly smaller, less necrotic and superficial, with defined borders | dose dependence of protection of mice ([1]; peptide of 70% purity, 10^7 CFU JS95, FIG. 5): dose-dependent | peptide dose at which the protective effect is evident [1, 8]: 3 µg | peptide dose reaching plateau level of protection [1, 8]: 50 µg | protection of mice when administered at a site distant to the bacterial challenge ([1]; simultaneously administered at a distant site): nor did it protect mice | recruitment of PMN / neutrophil infiltration at the site of infection [2]: abundant neutrophil infiltration | recruitment of PMN / neutrophil infiltration at the site of infection ([2]; listed as peptide): significant recruitment of PMN | neutrophil influx [3]: did not stimulate neutrophil recruitment; also recorded: did not induce neutrophil influx | neutrophil recruitment [4]: improved neutrophil recruitment | lesion size and duration [5]: significantly reduced size and duration | lesions [6]: reduced lesions | inhibition of GAS growth ([7]; THY medium and blood agar plates): does not inhibit GAS growth | bacterial growth around disk ([7]; disks with peptide up to 200 μg on blood-agar plate, 1000-1500 CFU JS95, 37° C. 16 hours, FIG. 10): bacterial growth was observed
